In ChEMBL document CHEMBL5226321, “Ivermectin: A Promising Therapeutic for Fighting Malaria. Current Status and Perspective” (J Med Chem, 2021):
Where “and” joins values, the source holds several entries; their conditions need not be identical. Equal values may be shown once.

Experiments:
Anopheles sp. [1] = assay: Insecticidal in Anopheles sp. assessed as mortality fed with compound treated human blood at 400 microg/kg in the presence of 6 mg/kg diethylcarbamazine citrate died in 9 days relative to control; type: functional, organism-based; details: dose 400.0 µg/kg, time 9.0 day
Anopheles sp. [2] = assay: Insecticidal in Anopheles sp. assessed as mortality rate fed with blood of compound treated human at 200 microg/kg administered once caught on day 2 after mass drug administration observed within 5 days relative to control; type: functional, organism-based; details: dose 200.0 µg/kg, time 5.0 day
Aedes aegypti = assay: Insecticidal in Aedes aegypti assessed as lethal concentration membrane-fed with compound treated blood; type: functional, organism-based
Anopheles sp. [3] = assay: Insecticidal in Anopheles sp. infected with Plasmodium vivax assessed as percentage of survival midgut fed with blood isolated from compound treated parasite-infected human at 40 ng/ml observed after 7 days relative to control; type: functional, organism-based; details: time 7.0 day
Anopheles gambiae [4] = assay: Insecticidal in Anopheles gambiae G3 assessed as reduction in survivorship fed with blood of compound treated human at 150 microg/kg administered once; type: functional, organism-based; details: dose 150.0 µg/kg
Anopheles gambiae [5] = assay: Insecticidal in Anopheles gambiae assessed as lethal concentration membrane-fed with compound treated human blood at 200 microg/kg observed after 48 to 72 hrs; type: functional, organism-based; details: dose 200.0 µg/kg, time 48-72 hrs
Anopheles gambiae [6] = assay: Insecticidal in Anopheles gambiae assessed as mortality fed with compound treated bovine blood at 600 microg/kg observed for 10 days; type: functional, organism-based; details: dose 600.0 µg/kg, time 10.0 day
Anopheles sp. [7] = assay: Insecticidal in Anopheles sp. assessed as mortality rate fed with blood of compound treated human at 250 microg/kg administered once and observed for 3 days relative to control; type: functional, organism-based; details: dose 250.0 µg/kg, time 3.0 day
Anopheles sp. [8] = assay: Insecticidal in Anopheles sp. infected with Plasmodium falciparum gametocytes assessed as mortality fed with compound treated bovine blood at 200 microg/kg observed within 5.5 days feeding at 15 days post treatment relative to control; type: functional, organism-based; details: dose 200.0 µg/kg, time 5.5 day
Anopheles arabiensis [9] = assay: Insecticidal in Anopheles arabiensis assessed as lethal concentration membrane-fed with compound treated bovine blood; type: functional
Anopheles stephensi [10] = assay: Insecticidal in Anopheles stephensi assessed as lethal concentration membrane-fed with compound treated blood; type: functional, organism-based
Anopheles sp. [11] = assay: Insecticidal in Anopheles sp. assessed as reduction in survival rate fed with compound treated human blood at 400 microg/kg observed in 48 hrs relative to control; type: functional, organism-based; details: dose 400.0 µg/kg
Anopheles gambiae [12] = assay: Insecticidal in Anopheles gambiae assessed as mortality fed with compound treated bovine blood at 6 ng/mL observed for 10 days relative to control; type: functional, organism-based; details: time 10.0 day
Anopheles sp. [13] = assay: Insecticidal in Anopheles sp. assessed as lethal concentration fed with compound treated human blood administered as a single dose at 10 microg/ml fed at 4 hrs post treatment; type: functional, organism-based; details: dose 10.0 µg/ml
Anopheles stephensi [14] = assay: Insecticidal in Anopheles stephensi assessed as lethal concentration membrane-fed with compound treated blood observed after 4 days; type: functional, organism-based; details: time 4.0 day
Culex quinquefasciatus [15] = assay: Insecticidal in Culex quinquefasciatus assessed as mortality rate membrane-fed with compound treated human blood at 10 to 100 microg/mL observed within 7 days relative to control; type: functional, organism-based; details: dose 10-100 µg/ml, time 7.0 day
Anopheles gambiae [16] = assay: Insecticidal in Anopheles gambiae assessed as mean survival fed with blood of compound treated human at 200 microg/kg relative to control; type: functional, organism-based; details: dose 200.0 µg/kg
Anopheles sp. [17] = assay: Insecticidal in Anopheles sp. assessed as lethal concentration membrane-fed with compound treated pig blood; type: functional
Anopheles sp. [18] = assay: Insecticidal in Anopheles sp. assessed as mortality rate fed with blood of compound treated human at 200 microg/kg administered once caught on day 1 after mass drug administration observed within 5 days relative to control; type: functional, organism-based; details: dose 200.0 µg/kg, time 5.0 day
Anopheles stephensi [19] = assay: Insecticidal in Anopheles stephensi assessed as mortality rate with blood of compound treated mouse at 82 microg/kg observed within 36 hrs relative to control; type: functional, organism-based; details: dose 82.0 µg/kg
Anopheles gambiae [20] = assay: Insecticidal in Anopheles gambiae assessed as median lethal concentration fed with compound treated bovine blood observed after 9 days; type: functional, organism-based; details: time 9.0 day
Anopheles sp. [21] = assay: Insecticidal in Anopheles sp. assessed as mean plasma concentration fed with compound treated pig blood administered as a single dose at 600 microg/kg at 22 day post treatment; type: functional, organism-based; details: dose 600.0 µg/kg
Anopheles sp. [22] = assay: Insecticidal in Anopheles sp. assessed as mortality rate fed with blood of compound treated human at 200 microg/kg administered once caught on day 3 after mass drug administration observed within 5 days relative to control; type: functional, organism-based; details: dose 200.0 µg/kg, time 5.0 day
Anopheles sp. [23] = assay: Insecticidal in Anopheles sp. infected with Plasmodium falciparum gametocytes assessed as mortality fed with compound treated bovine blood at 200 microg/kg observed within 2.87 days feeding at 2 days post treatment relative to control; type: functional, organism-based; details: dose 200.0 µg/kg, time 2.87 day
Plasmodium vivax [24] = assay: Antimalarial activity against Plasmodium vivax assessed as reduction in infection in Anopheles sp. mosquito midgut fed with blood isolated from compound treated parasite-infected human at 40 ng/ml observed after 7 days relative to control; type: functional, organism-based; details: time 7.0 day
Anopheles stephensi [25] = assay: Insecticidal in Anopheles stephensi larvae measured after 48 hrs; type: functional
Anopheles arabiensis [26] = assay: Insecticidal in Anopheles arabiensis assessed as reduction in fecundity fed with compound treated bovine blood at 200 microg/kg relative to control; type: functional, organism-based; set-up: scale not given: the % may be the effect or the level left; details: dose 200.0 µg/kg
Anopheles sp. [27] = assay: Insecticidal in Anopheles sp. assessed as mortality fed with compound treated pig blood at 600 microg/kg observed within 2 to 4 days feeding upto 8 days after drug administration relative to control; type: functional, organism-based; details: dose 600.0 µg/kg, time 2-4 day
Plasmodium vivax [28] = assay: Antimalarial activity against Plasmodium vivax assessed as reduction in […] in Anopheles sp. mosquito midgut fed with blood isolated from compound treated parasite-infected human at 40 ng/ml observed after 7 days relative to control; type: functional, organism-based; details: time 7.0 day
Culex quinquefasciatus [29] = assay: Insecticidal in Culex quinquefasciatus assessed as mortality rate fed with blood of compound treated mouse at […], sc before 12 hrs and observed after 36 hrs relative to control; type: functional, organism-based
Anopheles stephensi [30] = assay: Insecticidal in Anopheles stephensi assessed as mortality rate fed with blood of compound treated rabbits at 0.34 mg/kg, sc 4 to 6 days post-injection relative to control; type: functional, organism-based; details: time 4-6 day
Anopheles sp. [31] = assay: Insecticidal in Anopheles sp. infected with Plasmodium falciparum gametocytes assessed as reduction in survival fed with compound treated bovine blood at 200 microg/kg feeding at 28 days after injection relative to control; type: functional, organism-based; details: dose 200.0 µg/kg
Anopheles arabiensis [32] = assay: Insecticidal in Anopheles arabiensis assessed as percentage of reduction in mortality in 3 day survivorship fed with compound treated bovine blood at 73 mg observed for 24 weeks relative to control; type: functional, organism-based
Anopheles sp. [33] = assay: Insecticidal in Anopheles sp. infected with Plasmodium falciparum gametocytes assessed as survival fed with compound treated bovine blood at 200 microg/kg feeding at 2 weeks after injection; type: functional, organism-based; details: dose 200.0 µg/kg
Anopheles sp. [34] = assay: Insecticidal in Anopheles sp. infected with Plasmodium vivax assessed as mortality rate midgut fed with blood isolated from compound treated parasite-infected human observed after 7 days relative to control; type: functional, organism-based; details: time 7.0 day
Plasmodium vivax [35] = assay: Antimalarial activity against Plasmodium vivax assessed as sporogony lethality in Anopheles darlingi mosquito fed with blood isolated from compound treated parasite-infected human observed after 7 days by measuring reduction in parasite prevalence level at Lc50 relative to control; type: functional, organism-based; set-up: scale not given: the % may be the effect or the level left; details: time 7.0 day
Anopheles stephensi [36] = assay: Insecticidal in Anopheles stephensi assessed as mortality rate membrane-fed with blood of compound treated mouse at 600 microg/kg observed within 6 days relative to control; type: functional, organism-based; details: dose 600.0 µg/kg, time 6.0 day
Anopheles sp. [37] = assay: Insecticidal in Anopheles sp. assessed as lethal concentration membrane-fed with compound treated blood; type: functional, organism-based

## IVERMECTIN
Anopheles sp. [1]
  mortality: 100%
Anopheles sp. [2]
  mortality: 80%
Aedes aegypti
  MLC: 2.5 ppm
Anopheles sp. [3]
  Survival: 22%
Anopheles gambiae [4]
  LC50: 0.0224 µg/mL
Anopheles gambiae [5]
  LC50: 0.01 µg/mL and 0.007 µg/mL
Anopheles gambiae [6]
  mortality: 90%
Anopheles sp. [7]
  mortality: 80%
Anopheles sp. [8]
  mortality: 100%
Anopheles arabiensis [9]
  LC50: 7.79 ppb
Anopheles stephensi [10]
  MLC: 1 ppm
Anopheles sp. [11]
  Survival: 31%
Anopheles gambiae [12]
  mortality: 50%
Anopheles sp. [13]
  LC5: 18.3 ng/mL
Anopheles stephensi [14]
  LC50: 0.007 µg/mL
Culex quinquefasciatus [15]
  mortality: 100%
Anopheles gambiae [16]
  Survival: 2.3 days
Anopheles sp. [17]
  LC50: 0.0178 µg/mL
Anopheles sp. [18]
  mortality: 75%
Anopheles stephensi [19]
  mortality: 100%
Anopheles gambiae [20]
  LC50: 19.8 ppb
Anopheles sp. [21]
  Cp: 1.4 ng/mL
Anopheles sp. [22]
  mortality: 68%
Anopheles sp. [23]
  mortality: 100%
Plasmodium vivax [24]
  inhibition: 61.3%
Anopheles stephensi [25]
  LC50: 5.85 ppb
Anopheles arabiensis [26]
  Activity: 79%
Anopheles sp. [27]
  mortality: 100%
Plasmodium vivax [28]
  inhibition: 86%
Culex quinquefasciatus [29]
  mortality: 50%
Anopheles stephensi [30]
  mortality: 93%
Anopheles sp. [31]
  Survival: 23%
Anopheles arabiensis [32]
  mortality: 50%
Anopheles sp. [33]
  Survival: 2 days
Anopheles sp. [34]
  mortality: 97.1%
Plasmodium vivax [35]
  Activity: 22.6% and 17.1%
Anopheles stephensi [36]
  mortality: 85%
Anopheles sp. [37]
  MLC: 50 ppm
